# Test results from patent US10174036B2, “Substituted pyrazoles as JAK inhibitors” (WUXI FORTUNE PHARMACEUTICAL CO., LTD, priority 2015, dated 2019).
# pIC50: −log10 of the molar value.
# Experiments:
# Format in all cases: biochemical
# [1] = molecular target: T1, JAK3 (Homo sapiens, UniProt P52333); assay: Test for in vitro activity of JAK3 kinase (LANCE Ultra ULight-JAK-1 peptide); conditions: selectivity ratio JAK3 versus JAK2; class symbol
# T1 construct: purchased Life technology
# T1 sequence (P52333 1-1124): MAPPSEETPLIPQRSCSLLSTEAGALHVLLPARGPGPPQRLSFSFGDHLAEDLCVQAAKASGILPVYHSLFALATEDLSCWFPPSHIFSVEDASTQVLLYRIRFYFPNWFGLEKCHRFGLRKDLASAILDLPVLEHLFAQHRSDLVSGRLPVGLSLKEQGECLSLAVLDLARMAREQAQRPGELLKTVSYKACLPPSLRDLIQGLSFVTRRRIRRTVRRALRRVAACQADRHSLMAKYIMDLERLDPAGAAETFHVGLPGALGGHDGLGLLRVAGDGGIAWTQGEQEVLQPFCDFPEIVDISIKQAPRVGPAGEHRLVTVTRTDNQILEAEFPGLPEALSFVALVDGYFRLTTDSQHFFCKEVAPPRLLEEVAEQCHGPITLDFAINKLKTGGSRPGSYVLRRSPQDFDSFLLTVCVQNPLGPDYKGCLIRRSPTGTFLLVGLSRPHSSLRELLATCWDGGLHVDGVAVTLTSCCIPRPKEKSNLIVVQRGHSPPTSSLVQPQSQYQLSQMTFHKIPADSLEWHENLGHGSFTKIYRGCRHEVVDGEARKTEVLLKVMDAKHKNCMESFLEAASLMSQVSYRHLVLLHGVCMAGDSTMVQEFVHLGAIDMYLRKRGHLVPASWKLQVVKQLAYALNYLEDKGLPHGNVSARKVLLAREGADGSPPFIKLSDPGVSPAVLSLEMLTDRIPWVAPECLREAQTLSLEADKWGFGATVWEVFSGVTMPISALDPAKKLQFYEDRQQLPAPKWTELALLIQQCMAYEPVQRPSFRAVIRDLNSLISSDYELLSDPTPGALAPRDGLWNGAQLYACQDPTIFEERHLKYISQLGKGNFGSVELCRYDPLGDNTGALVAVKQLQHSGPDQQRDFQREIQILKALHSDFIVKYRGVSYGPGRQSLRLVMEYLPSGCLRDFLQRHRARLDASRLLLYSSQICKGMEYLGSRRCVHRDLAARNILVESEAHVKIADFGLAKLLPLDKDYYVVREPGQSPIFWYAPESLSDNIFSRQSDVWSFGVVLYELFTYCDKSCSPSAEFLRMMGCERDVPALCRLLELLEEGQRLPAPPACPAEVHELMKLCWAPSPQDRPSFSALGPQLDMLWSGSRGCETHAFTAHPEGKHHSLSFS
# Description: (§1) Test for In Vitro Activity of Jak1, Jak2, and Jak3 Kinase
# (§2) Recombinant human […] of JAK1, JAK2 and JAK3 were purchased from Life technology. LANCE Ultra ULight™-JAK-1 (Tyr1023) peptide and LANCE Eu-W1024 Anti-phosphotyrosine (PT66) were purchased from PerkinElmer. Multimode ELISA, Envison(PerkinElmer) reader was used.
# 0.05 nM of JAK3 Protein kinase, 50 nM of LANCE Ultra ULight™-JAK-1(Tyr1023) peptide, 4 uM of ATP, 50 mM of HEPES (pH 7.5), 10 mM of MgCl2, 1 mM of EGTA, 2 mM of DTT, 0.01% BRIJ-35. […] The reaction was carried out at room temperature for 90 min and the reaction system was 10 ul.
# (§3) Determination for Reaction
# (§4) 10 ul detection reagent was added to reaction plate, wherein the final concentration of LANCE Eu-W1024 Anti-phosphotyrosine (PT66) was 2 nM, the final concentration of EDTA was […], incubated at room temperature for 60 min, with Envison reader.
# (§5) The reading was converted to inhibition ratio (%) by the following formula: the inhibition ratio (%)=([…])/(Max−Min)×100%.
# [2] = molecular target: T2, JAK2 (Homo sapiens, UniProt O60674); assay: Test for in vitro activity of JAK2 kinase (LANCE Ultra ULight-JAK-1 peptide); conditions: recombinant human JAK2, 12 uM ATP, 60 min; class symbol
# T2 construct: purchased Life technology
# T2 sequence (O60674 whole entry): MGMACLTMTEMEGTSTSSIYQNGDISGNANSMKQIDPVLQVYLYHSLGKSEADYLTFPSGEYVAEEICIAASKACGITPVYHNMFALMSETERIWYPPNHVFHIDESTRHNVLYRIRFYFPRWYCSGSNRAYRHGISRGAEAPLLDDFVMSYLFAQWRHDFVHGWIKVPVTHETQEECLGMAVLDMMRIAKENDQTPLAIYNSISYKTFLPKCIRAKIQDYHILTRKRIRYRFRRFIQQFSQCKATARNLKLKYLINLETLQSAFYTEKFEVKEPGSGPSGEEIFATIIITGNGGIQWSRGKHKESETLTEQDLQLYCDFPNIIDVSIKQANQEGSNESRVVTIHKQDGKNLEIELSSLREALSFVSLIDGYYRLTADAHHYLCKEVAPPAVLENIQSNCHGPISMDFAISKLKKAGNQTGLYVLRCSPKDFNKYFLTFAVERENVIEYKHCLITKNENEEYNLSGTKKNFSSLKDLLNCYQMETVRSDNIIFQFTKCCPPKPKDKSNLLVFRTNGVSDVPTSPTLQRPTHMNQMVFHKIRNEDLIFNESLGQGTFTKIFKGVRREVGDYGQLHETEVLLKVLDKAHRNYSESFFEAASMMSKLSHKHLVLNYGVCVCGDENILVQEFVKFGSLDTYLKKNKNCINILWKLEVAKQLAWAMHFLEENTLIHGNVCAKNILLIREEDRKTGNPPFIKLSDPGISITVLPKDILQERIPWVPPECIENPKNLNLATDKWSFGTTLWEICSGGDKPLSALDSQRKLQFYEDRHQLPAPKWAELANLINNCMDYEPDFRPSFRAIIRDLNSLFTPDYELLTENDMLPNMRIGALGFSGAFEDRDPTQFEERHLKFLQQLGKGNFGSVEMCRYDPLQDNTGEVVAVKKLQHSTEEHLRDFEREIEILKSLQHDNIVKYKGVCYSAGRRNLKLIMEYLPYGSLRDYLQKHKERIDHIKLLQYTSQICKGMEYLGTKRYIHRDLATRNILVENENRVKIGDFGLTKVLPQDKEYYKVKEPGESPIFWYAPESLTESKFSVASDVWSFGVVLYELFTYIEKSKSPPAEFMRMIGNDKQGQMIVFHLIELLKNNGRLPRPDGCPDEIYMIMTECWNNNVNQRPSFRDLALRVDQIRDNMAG
# Description: as §1, §2
# The reaction was carried out at room temperature for 60 min and the reaction system was 10 ul.
# as §3, §4, §5
# [3] = molecular target: T3, JAK1 (Homo sapiens, UniProt P23458); assay: Test for in vitro activity of JAK1 kinase (LANCE Ultra ULight-JAK-1 peptide); conditions: selectivity ratio JAK1 versus JAK2; class symbol
# T3 construct: purchased Life technology
# T3 sequence (P23458 whole entry): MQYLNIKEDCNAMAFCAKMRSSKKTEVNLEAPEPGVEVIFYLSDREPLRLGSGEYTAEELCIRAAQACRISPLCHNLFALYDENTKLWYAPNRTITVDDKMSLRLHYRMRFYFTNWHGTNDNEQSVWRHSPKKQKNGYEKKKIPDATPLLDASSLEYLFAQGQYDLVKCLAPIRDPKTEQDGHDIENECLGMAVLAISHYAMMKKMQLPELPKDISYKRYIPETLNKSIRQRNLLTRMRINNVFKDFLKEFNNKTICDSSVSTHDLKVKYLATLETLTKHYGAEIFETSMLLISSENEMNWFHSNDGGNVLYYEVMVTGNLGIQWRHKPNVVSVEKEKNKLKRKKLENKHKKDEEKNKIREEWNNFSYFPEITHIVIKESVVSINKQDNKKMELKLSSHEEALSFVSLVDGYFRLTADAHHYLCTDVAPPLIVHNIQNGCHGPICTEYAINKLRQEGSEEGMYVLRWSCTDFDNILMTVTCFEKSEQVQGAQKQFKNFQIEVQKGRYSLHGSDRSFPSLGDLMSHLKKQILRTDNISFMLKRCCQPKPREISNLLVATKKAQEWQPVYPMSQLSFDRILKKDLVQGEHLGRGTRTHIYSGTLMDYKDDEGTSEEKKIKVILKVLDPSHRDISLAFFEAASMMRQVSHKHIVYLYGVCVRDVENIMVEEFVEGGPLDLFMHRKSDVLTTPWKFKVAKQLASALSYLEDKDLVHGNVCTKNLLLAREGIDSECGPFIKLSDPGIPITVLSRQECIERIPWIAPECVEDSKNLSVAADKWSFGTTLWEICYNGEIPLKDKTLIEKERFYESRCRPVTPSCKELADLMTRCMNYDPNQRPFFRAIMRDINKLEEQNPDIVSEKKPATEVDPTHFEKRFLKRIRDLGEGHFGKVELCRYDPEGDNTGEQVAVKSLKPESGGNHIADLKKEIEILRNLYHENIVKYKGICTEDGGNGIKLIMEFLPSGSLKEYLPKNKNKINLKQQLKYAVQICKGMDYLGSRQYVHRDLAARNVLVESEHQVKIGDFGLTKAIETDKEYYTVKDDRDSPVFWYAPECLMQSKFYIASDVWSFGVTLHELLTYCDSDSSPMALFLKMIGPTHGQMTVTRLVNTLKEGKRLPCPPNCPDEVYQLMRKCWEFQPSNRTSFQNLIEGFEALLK
# Description: as §1, §2
# The reaction was carried out at room temperature for 90 min and the reaction system was 10 ul.
# as §3, §4, §5
Structure (SMILES),JAK3/JAK2 (times) [1],pIC50 [2],JAK1/JAK2 (times) [3]
"N#CCC1(n2cc(-c3cccc4nc(NC(=O)C5CC5)nn34)cn2)CNC1 [WX00, N-[5-[1-[3-(cyanomethyl)azetidine-3-yl]pyrazole-4-yl]-[1,2,4]triazolo[1,5-a]pyridin-2-yl] cyclopropane carboxamide]",F4 (25 < F4 ≤ 100),7.00 to 8.00,F1 (1 ≤ F1 ≤ 5)
"CCS(=O)(=O)N1CC(CC#N)(n2cc(-c3nccc4nc(NC(=O)C5CC5)nn34)cn2)C1 [WX01, N-[5-[1-[3-(cyanomethyl)-1-ethylsulfonylazetidine-3-yl]pyrazole-4-yl]-[1,2,4]triazolo[1,5-c]pyrimidin-2-yl]cyclopropanecarboxamide]",F3 (10 < F3 ≤ 25),7.00 to 8.00,F2 (5 < F2 ≤ 10)
"N#CCC1(n2cc(-c3nccc4nc(NC(=O)C5CC5)nn34)cn2)CN(S(=O)(=O)C(F)(F)F)C1 [WX02, N-[5-[1-[3-(cyanomethyl)-1-(trifluoromethylsulfonyl)azetidine-3-yl]pyrazole-4-yl]-[1,2,4]triazolo[1,5-c]pyrimidin-2-yl]cyclopropanecarboxamide]",F3 (10 < F3 ≤ 25),> 8.00,F1 (1 ≤ F1 ≤ 5)
"N#CCC1(n2cc(-c3nccc4nc(NC(=O)C5CC5)nn34)cn2)CN(S(=O)(=O)C2CC2)C1 [WX03, N-[5-[1-[3-(cyanomethyl)-1-cyclopropylsulfonyl-azetidine-3-yl]pyrazole-4-yl]-[1,2,4]triazolo[1,5-c]pyrimidin-2-yl]cyclopropanecarboxamide]",F3 (10 < F3 ≤ 25),7.00 to 8.00,F2 (5 < F2 ≤ 10)
"CS(=O)(=O)N1CC(CC#N)(n2cc(-c3nccc4nc(N)nn34)cn2)C1 [WX04, 2-[3-[4-(2-amino-[1,2,4]triazolo[1,5-c]pyrimidin-5-yl)pyrazole-1-yl]-1-methylsulfonyl-cyclobutylamine-3-yl] acetonitrile]",F3 (10 < F3 ≤ 25),7.00 to 8.00,F1 (1 ≤ F1 ≤ 5)
"N#CCC1(n2cc(-c3nccc4nc(N)nn34)cn2)CN(S(=O)(=O)C(F)(F)F)C1 [WX05, 2-[3-[4-(2-amino-[1,2,4]triazolo[1,5-c]pyrimidin-5-yl)pyrazole-1-yl]-1-(trifluoromethylsulfonyl)cyclobutylamine-3-yl]acetonitrile]",F3 (10 < F3 ≤ 25),7.00 to 8.00,F1 (1 ≤ F1 ≤ 5)
"N#CCC1(n2cc(-c3nccc4nc(NC(=O)C5CNC5)nn34)cn2)CN(S(=O)(=O)C(F)(F)F)C1 [WX06, N-[5-[1-[3-(cyanomethyl)-1-(trifluoromethylsulfonyl)cyclobutylamine-3-yl]pyrazole-4-yl]-[1,2,4]triazolo[1,5-c]pyrimidin-2-yl]cyclobutylamine-3-formamide]",F3 (10 < F3 ≤ 25),7.00 to 8.00,F1 (1 ≤ F1 ≤ 5)
"N#CCC1(n2cc(-c3nccc4nc(NC(=O)C5CC(O)C5)nn34)cn2)CN(S(=O)(=O)C(F)(F)F)C1 (stereo not drawn) [WX07, N-[5-[1-[3-(cyanomethyl)-1-(trifluoromethylsulfonyl)cyclobutylamine-3-yl]pyrazole-4-yl]-[1,2,4]triazolo[1,5-c]pyrimidin-2-yl]-3-hydroxy-cyclobutane formamide]",F4 (25 < F4 ≤ 100),7.00 to 8.00,F2 (5 < F2 ≤ 10)
"N#CCC1(n2cc(-c3cccc4nc(NC(=O)C5CC5)nn34)cn2)CN(S(=O)(=O)C2CC2)C1 [WX08, N-(5-(1-(3-(cyanomethyl)-1-(cyclopropylsulfonyl)azetidine-3-yl)-1H-pyrazole-4-yl)-[1,2,4]triazolo[1,5-a]pyridin-2-yl)cyclopropane formamide]",F4 (25 < F4 ≤ 100),> 8.00,F1 (1 ≤ F1 ≤ 5)
"N#CCC1(n2cc(-c3cccc4nc(NC(=O)C5CC5)nn34)cn2)CN(S(=O)(=O)C(F)(F)F)C1 [WX09, N-(5-(1-(3-(cyanomethyl)-1-(trifluoromethylsulfonyl)azetidine-3-yl)-1H-pyrazole-4-yl)-[1,2,4]triazolo[1,5-a]pyridin-2-yl)cyclopropane formamide]",F4 (25 < F4 ≤ 100),> 8.00,F1 (1 ≤ F1 ≤ 5)
"COCC(=O)N1CC(CC#N)(n2cc(-c3nccc4nc(NC(=O)C5CC5)nn34)cn2)C1 [WX10, N-[5-[1-[3-(cyanomethyl)-1-(2-methoxyacetyl)azetidine-3-]pyrazole-4-]-[1,2,4]triazoloe[1,5-c]pyrimidine2-] cyclopropane carboxamide]",F1 (1 ≤ F1 ≤ 5),6.00 to 7.00,F1 (1 ≤ F1 ≤ 5)
"N#CCC1(n2cc(-c3nccc4nc(NC(=O)C5CC5)nn34)cn2)CN(C(=O)C2CC2)C1 [WX11, N-[5-[1-[3-(cyanomethyl)-1-(cyclopropylcarbonyl)azetidine-3-]pyrazole-4-]-[1,2,4]triazoloe[1,5-c]pyrimidine2-] cyclopropane carboxamide]",F3 (10 < F3 ≤ 25),6.00 to 7.00,F2 (5 < F2 ≤ 10)
"CS(=O)(=O)N1CC(CC#N)(n2cc(-c3nccc4nc(NC(=O)C5CC5)nn34)cn2)C1 [WX12, N-[5-[1-[3-(cyanomethyl)-1-methanesulfonyl-azetidine-3-]pyrazole-4-]-[1,2,4]triazoloe[1,5-c]pyrimidine2-] cyclopropane carboxamide]",F3 (10 < F3 ≤ 25),7.00 to 8.00,F2 (5 < F2 ≤ 10)
"N#CCC1(n2cc(-c3nccc4nc(NC(=O)C5CC5)nn34)cn2)CN(S(=O)(=O)C(F)F)C1 [WX13, N-[5-[1-[3-(cyanomethyl)-1-(difluoromethylsulfonyl)-azetidine-3-]pyrazole-4-]-[1,2,4]triazoloe[1,5-c]pyrimidine2-]cyclopropane carboxamide]",F4 (25 < F4 ≤ 100),> 8.00,F3 (10 < F3 ≤ 25)
"N#CCC1(n2cc(-c3cccc4nc(NC(=O)C5CC5)nn34)cn2)CN(S(=O)(=O)C(F)F)C1 [WX14, N-[5-[1-[3-(cyanomethyl)-1-(difluoromethylsulfonyl)azetidine-3-]pyrazole-4-]-[1,2,4]triazolo[1,5-c]pyridin-2-]cyclopropyl carboxamide]",F4 (25 < F4 ≤ 100),> 8.00,F2 (5 < F2 ≤ 10)
CS(=O)(=O)N1CC(CC#N)(n2cc(-c3cccc4nc(NC(=O)C5CC5)nn34)cn2)C1 [WX15],F4 (25 < F4 ≤ 100),> 8.00,F1 (1 ≤ F1 ≤ 5)
